Assay results as given in patent US20240285773A1, “METHODS OF TREATING MYELODYSPLASTIC SYNDROME AND MONITORING THE TREATMENT” (Geron Corporation, priority 2023, published 2024).
Where “and” joins values, the source holds several entries; their conditions need not be identical. Equal values may be shown once. [nps] = N3'→P5' thiophosphoramidate linkage; {Palm} = palmitoyl lipid

Tested on: RBC transfusion-dependent patients with IPSS low or intermediate-1 risk MDS
Experiment: Phase 3 trial: RBC transfusion independence (RBC-TI)
Type: in vivo, human
Details: for TI duration, median: Kaplan-Meier
Method: Patients were randomly assigned (based on a computer-generated schedule) in a 2:1 ratio to receive imetelstat or placebo, administered intravenously every 4 weeks until treatment discontinuation; crossover was not allowed. Randomization was stratified by prior RBC transfusion burden (≥4 to ≤6 or >6 units over an 8-week period during 16 weeks prior to randomization) and IPSS risk group (low or intermediate-1 risk). The starting dose of imetelstat was 7.5 mg/kg every four weeks. If a patient developed grade 3 or 4 hematologic and nonhematologic toxicities, dosing was held and, if necessary, reduced (Tables 2-4).
The primary end point was rate of RBC-TI for 8 consecutive weeks or longer. Key secondary end points included rate of 24-week TI, duration of TI, and the rate of hematologic response (hematologic improvement-erythroid [HI-E], based on modified International Working Group [IWG] 2006 criteria, and HI-E per revised IWG 2018). Additional secondary end points included relative change in number of RBC transfusions received by patients, relative change in hemoglobin, and safety. The changes in mutational status and in patient-reported fatigue over time (assessed by the Functional Assessment of Chronic Illness Therapy [FACIT] Fatigue Scale) were exploratory end points. Subgroup analyses were performed including baseline presence or absence of RS, prior RBC transfusion burden (≥4 to ≤6 or >6 RBC units/8-weeks during a 16-week period prior to randomization), and low or intermediate-1 IPSS risk categories. Subgroup analyses were also performed, including baseline mutation status as well as telomerase activity (TA), telomere lengths (TL), and human telomerase reverse transcriptase (hTERT) levels. Peripheral blood hematology, bone marrow evaluation, mutation assessment, and cytogenetic evaluation were performed centrally and responses assessed by an independent review committee (IRC). Rate of 1-year RBC-TI was reported as a post hoc analysis.
The data cutoff date for this primary analysis was 1 year after the last patient was randomized. All the efficacy analyses for primary and key secondary end points were conducted in the intent-to-treat population. […] The percentages of patients with a response for the two treatment groups were compared with a stratified Cochran-Mantel-Haenszel test at a two-sided significance level of 0.05 adjusting for stratification factors, prior RBC transfusion burden, and IPSS risk category low or intermediate-1. Multiplicity was accounted for by a sequential gatekeeping approach for the primary and key secondary end points, which were tested sequentially in the prespecified order of 8-week TI, followed by 24-week TI. Durations of RBC-TI were calculated by Kaplan-Meier method. Safety analyses were conducted in the safety population (all patients who received ≥1 dose of trial medication).
Treatment: In the patients from imetelstat treatment group, imetelstat sodium was administered as a 2-hour IV infusion every 4 weeks at 7.5 mg/kg. Supportive care, including RBC and platelet transfusions, myeloid growth factors (e.g., G-CSF (granulocyte colony stimulating factor)), and iron chelation therapy was administered as needed on study per investigator discretion. Control group received corresponding treatment without imetelstat.
End points and Analysis: • Primary end point: 8-week RBC TI. Proportion of patients without any RBC transfusion for at least eight consecutive weeks since entry to the trial (8-week TI). • Key secondary end points: • 24-week RBC TI; proportion of patients without any RBC transfusion for at least 24 consecutive weeks since entry to the trial (24-week TI). • Duration of TI; • Hematologic improvement-Erythroid (HI-E).
The 8-week RBC-TI rate was the proportion of patients without any RBC transfusion during any consecutive 8 weeks (56 days) starting from Study Day 1 until subsequent anti-cancer therapy, if any. […]

[1] = mutated transcription regulation genes
[2] = poor-prognosis genes mutated at baseline

Imetelstat: first-in-class telomerase inhibitor; synthetic lipid-conjugated 13-mer oligonucleotide N3′→P5′-thiophosphoramidate (TAGGGTTAGACAA; all [nps], 5' {Palm}, sugars by position and methylation of C not given here)
Difference in median RBC-TI duration vs placebo (8-week TI responders): 38.3 week
Hazard ratio, duration of RBC-TI vs placebo (8-week TI responders): 0.23
TI duration, median (8-week TI responders): 51.6 weeks
TI duration, median (8-week TI responders, listed as imetelstat): 51.6 weeks and 52 weeks
≥8-week TI rate (>1 baseline mutation): 42.7%
≥24-week TI rate (>1 baseline mutation): 26.7%
≥8-week TI rate (>2 baseline mutations): 45.5%
≥24-week TI rate (>2 baseline mutations): 33.3%
≥8-week TI rate (>3 baseline mutations): 55.6%
≥24-week TI rate (>3 baseline mutations): 33.3%
8-week TI response (ASXL1 mutations): 5/18
8-week TI response rate (ASXL1 mutations): (27.8) %
≥24-week TI rate (ASXL1 mutations): 11.1%
8-week TI response rate (ASXL1 mutations, listed as imetelstat): 27.8%
≥8-week TI rate (CUX1 mutations): 35.7%
≥24-week TI rate (CUX1 mutations): 14.3%
≥8-week TI rate (DNMT3A mutations): 31.6%
≥24-week TI rate (DNMT3A mutations): 26.3%
8-week TI response (ETV6 mutations): 1/2
8-week TI response rate (ETV6 mutations): (50.0) %
8-week TI response rate (ETV6 mutations, listed as imetelstat): 50%
8-week RBC-TI rate (IPSS intermediate-1 risk): 40%
8-week RBC-TI rate (IPSS low risk): 40%
8-week TI rate (ITT N=118): 39.8% and 40%
16-week TI rate (ITT N=118): 31.4%
16-week TI, patients (ITT N=118): 37 n
24-week TI rate (ITT N=118): 28%
24-week TI, patients (ITT N=118): 33 n
≥1-year TI rate (ITT N=118): 17.8% and 18%
≥1-year TI, patients (ITT N=118): 21 n
8-week TI, patients (ITT N=118, 7.5 mg/kg IV every 4 weeks): 47 n
8-week TI response (RUNX1 mutations): 0/2
8-week TI response rate (RUNX1 mutations): (0) %
≥8-Week RBC-TI (SF3B1 hot-spot A744P): 100%
≥8-Week RBC-TI (SF3B1 hot-spot E622D): 25.0%
≥8-Week RBC-TI (SF3B1 hot-spot E783K): 50.0%
≥8-Week RBC-TI (SF3B1 hot-spot H662Q/N/D/Y): 58.3%
≥8-Week RBC-TI (SF3B1 hot-spot K666R/T/Q/N): 33.3%
≥8-Week RBC-TI (SF3B1 hot-spot K700E): 43.9%
≥8-Week RBC-TI (SF3B1 hot-spot R625C/L/G): 57.1%
≥8-Week RBC-TI (SF3B1 hot-spot T663P): 100%
≥8-week TI rate (TET2 mutations): 50%
≥24-week TI rate (TET2 mutations): 40%
8-week TI response (TP53 mutations): 2/2
8-week TI response rate (TP53 mutations): (100) %
≥8-week TI rate (baseline SF3B1 mutations): 48.8%
≥24-week TI rate (baseline SF3B1 mutations): 35.4%
8-week RBC-TI responders with a single continuous RBC-TI period (in vivo): 83%
8-week TI responders who went on to achieve 24-week TI (in vivo): Approximately 70%
≥1-year TI among ≥8-week TI responders (in vivo): 44.7% and 45%
≥1-year TI among ≥24-week TI responders (in vivo): 63.6% and 64%
≥8-week TI rate (mutated RNA spliceosome genes): 43.8%
≥24-week TI rate (mutated RNA spliceosome genes): 30.2%
≥8-week TI rate (mutated epigenetic modifiers): 37.7%
≥24-week TI rate (mutated epigenetic modifiers): 27.5%
≥8-week TI rate (mutated receptors/kinases): 80.0%
≥24-week TI rate (mutated receptors/kinases): 80.0%
≥8-week TI rate [1]: 40.0%
≥24-week TI rate [1]: 20.0%
Median TI duration (patients who achieved 24-week TI): 80.0 weeks
8-week RBC-TI rate (patients with RS): 45%
24-week RBC-TI rate (patients with RS): 33%
Difference vs placebo in TI ≥24 weeks (patients with RS): 28%
8-week RBC-TI, patients (patients with RS (of 73)): 33 patients
8-week RBC-TI rate (patients without RS): 32%
24-week RBC-TI rate (patients without RS): 20%
Difference vs placebo in TI ≥24 weeks (patients without RS): 21%
8-week RBC-TI, patients (patients without RS (of 44)): 14 patients
8-week TI response [2]: 7/22
8-week TI response rate [2]: (31.8) %
≥24-week TI rate [2]: 9.1%
8-week TI response rate (poor-prognosis genes mutated at baseline, listed as imetelstat): 31.8%
8-week RBC-TI rate (prior burden >6 units/8 weeks): 34%
8-week RBC-TI, patients (prior burden >6 units/8 weeks (of 56)): 19 patients
8-week RBC-TI rate (prior burden ≥4 to ≤6 units/8 weeks): 45%
8-week RBC-TI, patients (prior burden ≥4 to ≤6 units/8 weeks (of 62)): 28 patients
Median duration of TI (≥1-year TI responders): 123 weeks
